Here are results for six compounds from ChEMBL document CHEMBL1155088, “A new sesquiterpene lactone from the roots of Saussurea lappa: structure-anticancer activity study” (Bioorg Med Chem Lett, 2008).

In general, IC50 refers to the concentration at which inhibition is half-maximal.

≈ marks a conversion by molar mass, not a printed value. Calls of active or inactive are those of the source. No cut-off for these calls is given here.

Holding throughout (type): functional, cell-based
For one test, the system named is MCF7. The experiment in a line: Cytotoxicity against human MCF7 cells after 48 hrs by MTT assay. The note with it: MCF7, 48 h.
The test system of a further test is A-431. As to the kind of experiment: Cytotoxicity against human A431 cells after 48 hrs by MTT assay. For orientation: Tetrazolium assays rely on reduction of a dye to a coloured formazan, in cell work by metabolically active cells.
In a further test the test system is COLO 205. As to the kind of experiment: Cytotoxicity against human COLO205 cells after 48 hrs by MTT assay. The note with it: for IC50: COLO 205, 48 h.
Another test has as its system A549. As to the kind of experiment: Cytotoxicity against human A549 cells after 48 hrs by MTT assay.

As to `C=C1C(=O)O[C@@H]2/C=C(\C)CCC[C@H](C)CC[C@H]12` [ISODIHYDROCOSTUNOLIDE], the IC50 in the test with MCF7 is 35 µg/mL (≈ 150 µM); in the test with A-431 (A-431, 48 h), 107 µg/mL (≈ 457 µM); in the test with COLO 205, 27 µg/mL (≈ 115 µM); in the test with A549 (A549, 48 h), 125 µg/mL (≈ 533 µM).

Turning to `COC[C@@H]1C(=O)O[C@@H]2/C=C(\C)CC/C=C(\C)CC[C@@H]12`, the IC50 with MCF7 was determined as 75 µg/mL (≈ 284 µM); with COLO 205, 220 µg/mL (≈ 832 µM). Besides, the result in the test on A-431 and with A549 was inactive.

For the compound `COC[C@@H]1C(=O)O[C@H]2[C@H]1CC[C@@]1(C)CCCC3(OCOO3)[C@H]21` (some centres undefined), the IC50 with MCF7 was found to be 180 µg/mL (≈ 577 µM). Also, the outcome in the test on A-431, with COLO 205 and in the test with A549 was inactive.

With `C=C1CCC[C@]2(C)CC[C@@H]3[C@H](OC(=O)[C@H]3COC)[C@@H]12`, the results for the IC50 in the test on MCF7 and with COLO 205 were 88.5 µg/mL (≈ 335 µM) and 110 µg/mL (≈ 415 µM), respectively. For the same compound, the result in the test with A-431 and in the test with A549 was inactive.

For the compound `C/C1=C\[C@H]2OC(=O)[C@@H](C)[C@@H]2CC/C(C)=C/CC1` [DIHYDRO COSTUNOLIDE], the figures for the 50% inhibitory concentration (IC50) in the test on MCF7 and with COLO 205 were 57.9 µg/mL (≈ 247 µM) and 134 µg/mL (≈ 572 µM), respectively. Also, the outcome in the test on A-431 and in the test with A549 was inactive.

The compound `COC[C@@H]1C(=O)O[C@H]2[C@H]1CC[C@@]1(C)CCCC(=O)[C@H]21` returned an IC50 in the test on MCF7 of 103 µg/mL (≈ 388 µM). The result with A-431, in the test with COLO 205 and in the test with A549 was inactive.
